Among the data in the Kinase Knowledgebase extract (Sharma et al. 2016) are IC50 values, retold here.

The structures appear in SMILES notation.

The assay has as its target PIK3CG (human) (UniProt P48736). As to the kind of experiment: Assessment of PIK3CG Kinase Activity.

PIK3CG (human), sequence (P48736 whole entry, looked up): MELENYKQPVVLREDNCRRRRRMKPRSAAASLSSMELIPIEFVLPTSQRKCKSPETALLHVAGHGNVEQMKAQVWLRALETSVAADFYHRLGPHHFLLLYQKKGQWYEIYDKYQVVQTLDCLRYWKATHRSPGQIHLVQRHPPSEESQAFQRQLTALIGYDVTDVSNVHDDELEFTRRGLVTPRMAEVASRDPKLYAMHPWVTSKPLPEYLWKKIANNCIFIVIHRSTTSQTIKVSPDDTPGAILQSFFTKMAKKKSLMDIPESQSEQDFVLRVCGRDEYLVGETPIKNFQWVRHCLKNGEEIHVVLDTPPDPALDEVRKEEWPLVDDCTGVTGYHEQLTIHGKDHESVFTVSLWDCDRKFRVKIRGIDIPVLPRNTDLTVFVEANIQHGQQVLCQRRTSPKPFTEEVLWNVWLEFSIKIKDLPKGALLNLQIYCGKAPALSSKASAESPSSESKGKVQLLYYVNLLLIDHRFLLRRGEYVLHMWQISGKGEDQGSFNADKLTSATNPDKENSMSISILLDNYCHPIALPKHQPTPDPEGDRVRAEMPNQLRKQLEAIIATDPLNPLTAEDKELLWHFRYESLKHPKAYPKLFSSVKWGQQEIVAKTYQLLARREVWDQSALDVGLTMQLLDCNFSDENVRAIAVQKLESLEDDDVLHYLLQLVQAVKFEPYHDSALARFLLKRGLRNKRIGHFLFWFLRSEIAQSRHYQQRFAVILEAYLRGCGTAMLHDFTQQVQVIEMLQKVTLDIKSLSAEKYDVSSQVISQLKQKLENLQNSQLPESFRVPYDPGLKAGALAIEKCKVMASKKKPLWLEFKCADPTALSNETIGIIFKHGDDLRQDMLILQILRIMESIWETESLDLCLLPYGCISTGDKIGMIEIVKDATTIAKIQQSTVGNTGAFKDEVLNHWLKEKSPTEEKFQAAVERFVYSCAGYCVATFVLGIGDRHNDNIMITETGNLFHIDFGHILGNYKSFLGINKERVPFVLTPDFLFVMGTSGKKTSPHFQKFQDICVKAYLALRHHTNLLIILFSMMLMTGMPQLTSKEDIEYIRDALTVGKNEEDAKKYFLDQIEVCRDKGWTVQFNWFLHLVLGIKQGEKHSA

`C[C@H](NC(=O)Nc1nc2c(s1)-c1c(c(-c3ccccc3)nn1-c1ccccc1Cl)CC2)C(=O)N1CCN(C)CC1` yielded an IC50 below 800 nM. `Cn1cc(CCNC(=O)Nc2nc3c(s2)-c2c(c(-c4cccnc4)nn2-c2ccccc2Cl)CC3)cn1` returned an IC50 below 800 nM. `CN1CCC(n2nc(-c3cncnc3)c3c2-c2sc(NC(=O)NC[C@H]4CCCN4C(=O)OC(C)(C)C)nc2CC3)CC1` had an IC50 below 800 nM.

`O=C(NCc1ncc[nH]1)Nc1nc2c(s1)-c1c(c(-c3cccnc3)nn1-c1ccccc1Cl)CC2`: the IC50 is below 800 nM. As to `CC(C)(C)OC(=O)NCc1ccccc1NC(=O)Nc1nc2c(s1)-c1c(c(-c3cccnc3)nn1-c1ccccc1Cl)CC2`, the IC50 was below 800 nM. Molecule `O=C1CCC(CNC(=O)Nc2nc3c(s2)-c2c(c(-c4cncnc4)nn2-c2ccccc2Cl)CC3)N1` (configuration not stated) yielded an IC50 below 800 nM.

On to `O=C(NCc1cccc(N2CCNC2=O)c1)Nc1nc2c(s1)-c1c(c(-c3cccnc3)nn1-c1ccccc1Cl)CC2`, for which the IC50 was below 800 nM. Consider `CN1CCN(CCCNC(=O)Nc2nc3c(s2)-c2c(c(-c4cncnc4)nn2-c2ccccc2F)CC3)CC1`, for which the IC50 was below 800 nM.

`CC(C)c1noc(CCNC(=O)Nc2nc3c(s2)-c2c(c(C4CC4)nn2-c2ccccc2Cl)CC3)n1` yielded an IC50 below 800 nM. As for `O=C(NC[C@@H]1CCCN1)Nc1nc2c(s1)-c1c(c(-c3cncnc3)nn1-c1ccccc1F)CC2`, the figure is below 800 nM; as for `CC(C)(C)OC(=O)N1CCCC(CNC(=O)Nc2nc3c(s2)-c2c(c(-c4cccnc4)nn2-c2ccccc2Cl)CC3)C1` (configuration not stated), below 800 nM; as for `CN(C)S(=O)(=O)c1ccccc1CNC(=O)Nc1nc2c(s1)-c1c(c(-c3ccccc3)nn1-c1ccccc1Cl)CC2`, below 800 nM. On to `O=C(NCc1ccc(-c2ncc[nH]2)cc1)Nc1nc2c(s1)-c1c(c(-c3cncnc3)nn1-c1ccccc1Cl)CC2`, for which the IC50 was below 800 nM. Regarding `CC(C)(C)OC(=O)N1CCCC1CNC(=O)Nc1nc2c(s1)-c1c(c(Nc3ccccn3)nn1-c1ccccc1)CC2` (configuration not stated), the IC50 is below 800 nM. As for `COc1cccc(CNC(=O)Nc2nc3c(s2)-c2c(c(-c4cccnc4)nn2C2CCN(C4CCCC4)CC2)CC3)c1`, the figure is below 800 nM; as for `CS(=O)(=O)Nc1ccc(NC(=O)Nc2nc3c(s2)-c2c(c(-c4ccccc4)nn2-c2ccccc2Cl)CC3)cc1`, below 800 nM. `CC1(C)NC(=O)N(Cc2ccc(CNC(=O)Nc3nc4c(s3)-c3c(c(-c5cccnc5)nn3-c3ccccc3Cl)CC4)cc2)C1=O` gave an IC50 below 800 nM.

The molecule `O=C(NCC1CCCNC1)Nc1nc2c(s1)-c1c(c(-c3cncnc3)nn1-c1ccccc1Cl)CC2` (configuration not stated) displayed an IC50 below 800 nM. With `Cc1nc[nH]c1-c1cccc(CNC(=O)Nc2nc3c(s2)-c2c(c(-c4cncnc4)nn2-c2ccccc2Cl)CC3)c1` the figure was below 800 nM. On to `O=C(NC[C@@H]1CCCN1)Nc1nc2c(s1)-c1c(c(-c3cncnc3)nn1-c1ccccc1Cl)CC2`, for which the IC50 was below 800 nM. With `CC(C)c1nnc(CCNC(=O)Nc2nc3c(s2)-c2c(c(-c4cccnc4)nn2C2CCN(C)CC2)CC3)o1`, the IC50 is below 800 nM. The molecule `CC(=O)NC1CCN(C(=O)Nc2nc3c(s2)-c2c(c(-c4cccnc4)nn2-c2ccccc2Cl)CC3)C1` (configuration not stated) returned an IC50 below 800 nM. As to `CC(C)(C)OC(=O)CCNC(=O)Nc1nc2c(s1)-c1c(c(Nc3ccccn3)nn1-c1ccccc1)CC2`, the IC50 was below 800 nM. As for `Cn1ccnc1CNC(=O)Nc1nc2c(s1)-c1c(c(-c3cccnc3)nn1-c1ccccc1Cl)CC2`, the IC50 is below 800 nM. Consider `CN1CCN(CCNC(=O)Nc2nc3c(s2)-c2c(c(-c4cncnc4)nn2-c2ccccc2Cl)CC3)CC1`, for which the IC50 is below 800 nM. With `CC(C)(C)OC(=O)N1CCC[C@H]1CNC(=O)Nc1nc2c(s1)-c1c(c(-c3cncnc3)nn1-c1ccccc1Cl)CC2` the figure was below 800 nM; with `O=C(NCCN1CCOCC1)Nc1nc2c(s1)-c1c(c(-c3cncnc3)nn1-c1ccccc1Cl)CC2`, below 800 nM.

On to `COc1cc(CNC(=O)Nc2nc3c(s2)-c2c(c(-c4cncnc4)nn2-c2ccccc2Cl)CC3)cc(OC)c1`, for which the IC50 was below 800 nM.

Regarding `O=C(Nc1nc2c(s1)-c1c(c(-c3cccnc3)nn1-c1ccccc1Cl)CC2)N1CCCC(c2nc3ccccc3[nH]2)C1` (configuration not stated), the IC50 was below 800 nM.

`CC(C)(C)OC(=O)CCNC(=O)Nc1nc2c(s1)-c1c(c(-c3ccccc3)nn1-c1ccccc1Cl)CC2` registered an IC50 below 800 nM. `O=C(O)CC1(CNC(=O)Nc2nc3c(s2)-c2c(c(-c4cccnc4)nn2-c2ccccc2Cl)CC3)CCCCC1` displayed an IC50 below 800 nM. `O=C(NCCCn1ccnc1)Nc1nc2c(s1)-c1c(c(-c3cncnc3)nn1-c1ccccc1Cl)CC2`: the IC50 was below 800 nM.

In turn, `CC(C)(C)OC(=O)N1CCC(CNC(=O)Nc2nc3c(s2)-c2c(c(-c4cccnc4)nn2-c2ccccc2Cl)CC3)CC1` registered an IC50 below 800 nM.

With `O=C(NCCN1CCOCC1)Nc1nc2c(s1)-c1c(c(-c3cccnc3)nn1-c1ccccc1Cl)CC2`, the IC50 was below 800 nM. Take `CC(C)(CNc1ncccn1)NC(=O)Nc1nc2c(s1)-c1c(c(-c3cccnc3)nn1-c1ccccc1Cl)CC2`: the IC50 was below 800 nM. `COC(=O)CCNC(=O)Nc1nc2c(s1)-c1c(c(-c3cncnc3)nn1-c1ccccc1Cl)CC2`: the IC50 was below 800 nM.

Take `O=C(Nc1nc2c(s1)-c1c(c(-c3cccnc3)nn1-c1ccccc1Cl)CC2)N1CCCC(c2ccccc2O)C1` (configuration not stated): the IC50 is below 800 nM. Take `CCc1cnc(CCNC(=O)Nc2nc3c(s2)-c2c(c(-c4cccnc4)nn2-c2ccccc2Cl)CC3)o1`: the IC50 is below 800 nM. With `CC(C)COC(=O)N1CCC[C@@H]1CNC(=O)Nc1nc2c(s1)-c1c(c(-c3cncnc3)nn1-c1ccccc1Cl)CC2`, the IC50 is below 800 nM. As for `O=C(NCc1cccnc1N1CCCC1)Nc1nc2c(s1)-c1c(c(-c3cncnc3)nn1-c1ccccc1Cl)CC2`, the figure is below 800 nM; as for `CC(C)c1nnc(CCNC(=O)Nc2nc3c(s2)-c2c(c(-c4ccccc4)nn2-c2cccc(Cl)c2)CC3)o1`, below 800 nM. Molecule `O=C(Nc1nc2c(s1)-c1c(c(-c3cccnc3)nn1-c1ccccc1Cl)CC2)N1CCCCC1c1nc2ccccc2[nH]1` (configuration not stated) returned an IC50 below 800 nM. With `CC(C)(C)OC(=O)Nc1cccc(CNC(=O)Nc2nc3c(s2)-c2c(c(-c4cncnc4)nn2-c2ccccc2Cl)CC3)c1` the figure was below 800 nM. `CN(C(=O)OC(C)(C)C)C1CCN(C(=O)Nc2nc3c(s2)-c2c(c(-c4cccnc4)nn2-c2ccccc2Cl)CC3)C1` (configuration not stated): the IC50 is below 800 nM. Molecule `CNC(=O)c1cccc(CNC(=O)Nc2nc3c(s2)-c2c(c(C4CC4)nn2-c2ccccc2Cl)CC3)c1` registered a 50% inhibitory concentration (IC50) below 800 nM. Regarding `CC(C)(C)OC(=O)CC1(O)CCN(C(=O)Nc2nc3c(s2)-c2c(c(-c4cccnc4)nn2-c2ccccc2Cl)CC3)CC1`, the IC50 was below 800 nM. As for `O=C(NCCNS(=O)(=O)c1cccnc1)Nc1nc2c(s1)-c1c(c(-c3ccccc3)nn1-c1ccccc1Cl)CC2`, the figure is below 800 nM; as for `O=C(NC[C@H]1CCN(C(=O)N2CCCC2)C1)Nc1nc2c(s1)-c1c(c(-c3ccccc3)nn1-c1cccc(Cl)c1)CC2`, below 800 nM; as for `O=C(NCc1cc(C2CC2)n[nH]1)Nc1nc2c(s1)-c1c(c(-c3cncnc3)nn1-c1ccccc1Cl)CC2`, below 800 nM.

As for `CN1CCC(n2nc(-c3cccnc3)c3c2-c2sc(NC(=O)NCCc4nc(C5CC5)no4)nc2CC3)CC1`, the IC50 was below 800 nM. On to `CS(=O)(=O)c1ccc(CNC(=O)Nc2nc3c(s2)-c2c(c(-c4cncnc4)nn2-c2ccccc2Cl)CC3)cc1`, for which the IC50 is below 800 nM. Molecule `CC(C)(C)OC(=O)CCNC(=O)Nc1nc2c(s1)-c1c(c(-c3cccnc3)nn1C1CCN(C3CCCC3)CC1)CC2` returned an IC50 below 800 nM.

The molecule `CC(=O)Nc1cccc(CNC(=O)Nc2nc3c(s2)-c2c(c(-c4cncnc4)nn2-c2ccccc2Cl)CC3)c1` gave an IC50 below 800 nM. With `O=C1CCC(NC(=O)Nc2nc3c(s2)-c2c(c(-c4cccnc4)nn2-c2ccccc2Cl)CC3)C(c2ccccc2)N1` (configuration not stated) the figure was below 800 nM.

For the molecule `CC(C)(C)OC(=O)N1CCC[C@@H]1CNC(=O)Nc1nc2c(s1)-c1c(c(-c3cccnc3)nn1-c1ccccc1Cl)CC2`, the IC50 was below 800 nM. With `CC(C)(C)OC(=O)CCNC(=O)Nc1nc2c(s1)-c1c(c(-c3cncnc3)nn1-c1ccccc1Cl)CC2` the figure was below 800 nM; with `CN(C)C(=O)CNC(=O)Nc1nc2c(s1)-c1c(c(-c3ccccc3)nn1-c1ccccc1Cl)CC2`, below 800 nM; with `O=C(NC[C@H]1CCCN1)Nc1nc2c(s1)-c1c(c(-c3cncnc3)nn1-c1ccccc1F)CC2`, below 800 nM. On to `CN(C)CCNC(=O)Nc1nc2c(s1)-c1c(c(-c3cncnc3)nn1-c1ccccc1F)CC2`, for which the IC50 was below 800 nM. With `CN1CCN(CCCNC(=O)Nc2nc3c(s2)-c2c(c(-c4cncnc4)nn2-c2ccccc2Cl)CC3)CC1` the figure was below 800 nM; with `CCc1csc(CCNC(=O)Nc2nc3c(s2)-c2c(c(-c4cccnc4)nn2-c2ccccc2Cl)CC3)n1`, below 800 nM; with `COc1ccccc1C1CCN(C(=O)Nc2nc3c(s2)-c2c(c(-c4cccnc4)nn2-c2ccccc2Cl)CC3)C1` (configuration not stated), below 800 nM. `CN1CCC(n2nc(-c3cccnc3)c3c2-c2sc(NC(=O)NCCC(=O)N(C)C)nc2CC3)CC1` displayed an IC50 below 800 nM. For the molecule `CN(C)CCNC(=O)Nc1nc2c(s1)-c1c(c(-c3cccnc3)nn1-c1ccccc1Cl)CC2`, the IC50 is below 800 nM. `O=C(NC[C@H]1CCCN1C(=O)N1CCCCC1)Nc1nc2c(s1)-c1c(c(-c3cncnc3)nn1-c1ccccc1Cl)CC2` displayed an IC50 below 800 nM. As for `N#Cc1cccc(CNC(=O)Nc2nc3c(s2)-c2c(c(-c4cncnc4)nn2-c2ccccc2Cl)CC3)c1`, the figure is below 800 nM; as for `O=C(NCc1nnn[nH]1)Nc1nc2c(s1)-c1c(c(-c3cncnc3)nn1-c1ccccc1Cl)CC2`, below 800 nM. As for `CC(C)(C)OCCNC(=O)Nc1nc2c(s1)-c1c(c(-c3ccccc3)nn1-c1ccccc1Cl)CC2`, the IC50 is below 800 nM. With `O=C(NCCC(=O)N1CCOCC1)Nc1nc2c(s1)-c1c(c(-c3ccccc3)nn1-c1ccccc1Cl)CC2` the figure was below 800 nM; with `COc1cccc(CCNC(=O)Nc2nc3c(s2)-c2c(c(-c4cncnc4)nn2-c2ccccc2Cl)CC3)c1OC`, below 800 nM. For the molecule `CC(C)c1cnc(CCNC(=O)Nc2nc3c(s2)-c2c(c(-c4cccnc4)nn2-c2ccccc2Cl)CC3)o1`, the IC50 was below 800 nM. Consider `CN1CCC(C(=O)N2CCC[C@@H]2CNC(=O)Nc2nc3c(s2)-c2c(c(-c4cncnc4)nn2-c2ccccc2Cl)CC3)C1` (some centres not stated), for which the IC50 is below 800 nM.
